According to ChEMBL document CHEMBL3431459, “Roche carnitine palmitoyltransferase modulator screening data (supplementary data associated with the publication CHEMBL2216752)”:
Converted amounts (≈) assume the structure as drawn.

Key:
[1] = molecular target: T1, Carnitine O-palmitoyltransferase 2, mitochondrial (Homo sapiens, UniProt P23786); test: (§1) SUPPLEMENTARY: Inhibition of Carnitine palmitoyltransferase 2
T1 sequence (P23786 whole entry): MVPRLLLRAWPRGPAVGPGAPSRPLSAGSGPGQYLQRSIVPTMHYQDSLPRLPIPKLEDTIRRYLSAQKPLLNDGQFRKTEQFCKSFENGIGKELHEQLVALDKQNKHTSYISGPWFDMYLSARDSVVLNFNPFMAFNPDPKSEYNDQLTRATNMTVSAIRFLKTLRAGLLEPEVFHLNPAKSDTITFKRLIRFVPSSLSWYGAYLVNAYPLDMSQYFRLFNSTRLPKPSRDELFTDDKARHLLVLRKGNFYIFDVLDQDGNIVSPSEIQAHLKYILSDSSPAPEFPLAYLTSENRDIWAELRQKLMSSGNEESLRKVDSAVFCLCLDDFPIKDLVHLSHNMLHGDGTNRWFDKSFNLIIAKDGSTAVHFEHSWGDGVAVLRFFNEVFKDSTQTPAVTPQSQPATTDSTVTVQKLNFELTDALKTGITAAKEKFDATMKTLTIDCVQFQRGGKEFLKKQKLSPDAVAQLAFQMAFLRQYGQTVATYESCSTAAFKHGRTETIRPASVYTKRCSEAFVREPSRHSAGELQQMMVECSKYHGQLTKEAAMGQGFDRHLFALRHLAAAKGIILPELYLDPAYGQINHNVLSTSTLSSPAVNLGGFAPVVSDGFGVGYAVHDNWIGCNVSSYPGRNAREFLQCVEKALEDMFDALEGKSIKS

[2] = molecular target: T2, Carnitine O-palmitoyltransferase 2, mitochondrial (Rattus norvegicus, UniProt P18886); test: as §1
T2 sequence (P18886 whole entry): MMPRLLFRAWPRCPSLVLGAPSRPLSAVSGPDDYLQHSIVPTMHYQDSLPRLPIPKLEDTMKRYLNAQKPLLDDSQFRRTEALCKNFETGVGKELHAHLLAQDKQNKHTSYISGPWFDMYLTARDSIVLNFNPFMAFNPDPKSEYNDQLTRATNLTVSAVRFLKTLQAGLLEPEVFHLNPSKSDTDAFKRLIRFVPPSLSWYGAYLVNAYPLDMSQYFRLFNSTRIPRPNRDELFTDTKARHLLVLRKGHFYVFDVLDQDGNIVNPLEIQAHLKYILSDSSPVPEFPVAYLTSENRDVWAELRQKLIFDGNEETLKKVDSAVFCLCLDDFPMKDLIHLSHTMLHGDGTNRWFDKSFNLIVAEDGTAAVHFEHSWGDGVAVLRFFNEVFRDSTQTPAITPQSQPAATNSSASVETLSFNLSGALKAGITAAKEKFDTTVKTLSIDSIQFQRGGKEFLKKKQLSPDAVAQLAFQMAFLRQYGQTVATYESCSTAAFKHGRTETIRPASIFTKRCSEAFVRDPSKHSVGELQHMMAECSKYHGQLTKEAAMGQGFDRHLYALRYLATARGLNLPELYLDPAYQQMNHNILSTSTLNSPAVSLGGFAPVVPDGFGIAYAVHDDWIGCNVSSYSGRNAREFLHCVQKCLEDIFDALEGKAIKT

[3] = SUPPLEMENTARY: PAMPA permeability assay; format: physicochemical; settings: read-out: Permeability
[4] = SUPPLEMENTARY: Lyophilisation Solubility Assay (LYSA); format: physicochemical; settings: read-out: Kinetic_solubility
[5] = molecular target: T3, Carnitine O-palmitoyltransferase 1, muscle isoform (Homo sapiens, UniProt Q92523); test: SUPPLEMENTARY: Inhibition of Carnitine palmitoyltransferase 1, muscle isoform; design: species or system Muscle tissue
T3 sequence (Q92523 whole entry): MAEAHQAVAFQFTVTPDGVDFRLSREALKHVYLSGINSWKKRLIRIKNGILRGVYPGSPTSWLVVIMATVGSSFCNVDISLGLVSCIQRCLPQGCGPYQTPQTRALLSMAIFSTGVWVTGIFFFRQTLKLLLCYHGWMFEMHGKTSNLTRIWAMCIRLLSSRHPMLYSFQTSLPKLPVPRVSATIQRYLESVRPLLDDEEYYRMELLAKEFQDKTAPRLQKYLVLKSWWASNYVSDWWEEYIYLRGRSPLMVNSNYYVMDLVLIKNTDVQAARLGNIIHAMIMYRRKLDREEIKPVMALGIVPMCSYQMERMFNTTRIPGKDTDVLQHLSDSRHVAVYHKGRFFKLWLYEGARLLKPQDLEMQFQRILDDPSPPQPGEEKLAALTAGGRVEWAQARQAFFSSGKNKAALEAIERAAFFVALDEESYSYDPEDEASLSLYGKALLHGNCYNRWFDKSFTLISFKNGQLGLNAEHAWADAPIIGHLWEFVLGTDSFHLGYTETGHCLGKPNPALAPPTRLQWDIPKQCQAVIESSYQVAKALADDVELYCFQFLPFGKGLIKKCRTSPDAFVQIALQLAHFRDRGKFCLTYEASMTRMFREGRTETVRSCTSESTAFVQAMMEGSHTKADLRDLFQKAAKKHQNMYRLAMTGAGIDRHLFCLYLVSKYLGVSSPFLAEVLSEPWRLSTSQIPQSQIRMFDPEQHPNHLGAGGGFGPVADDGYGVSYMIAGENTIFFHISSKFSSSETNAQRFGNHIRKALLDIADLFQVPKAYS

[6] = SUPPLEMENTARY: Lipophilicity (log D) Determination by high-throughput shake-flask; format: physicochemical; settings: octanol/water
[7] = molecular target: T4, Carnitine O-palmitoyltransferase 1, liver isoform (Homo sapiens, UniProt P50416); test: (§2) SUPPLEMENTARY: Inhibition of Carnitine palmitoyltransferase 1, liver isoform
T4 sequence (P50416 whole entry): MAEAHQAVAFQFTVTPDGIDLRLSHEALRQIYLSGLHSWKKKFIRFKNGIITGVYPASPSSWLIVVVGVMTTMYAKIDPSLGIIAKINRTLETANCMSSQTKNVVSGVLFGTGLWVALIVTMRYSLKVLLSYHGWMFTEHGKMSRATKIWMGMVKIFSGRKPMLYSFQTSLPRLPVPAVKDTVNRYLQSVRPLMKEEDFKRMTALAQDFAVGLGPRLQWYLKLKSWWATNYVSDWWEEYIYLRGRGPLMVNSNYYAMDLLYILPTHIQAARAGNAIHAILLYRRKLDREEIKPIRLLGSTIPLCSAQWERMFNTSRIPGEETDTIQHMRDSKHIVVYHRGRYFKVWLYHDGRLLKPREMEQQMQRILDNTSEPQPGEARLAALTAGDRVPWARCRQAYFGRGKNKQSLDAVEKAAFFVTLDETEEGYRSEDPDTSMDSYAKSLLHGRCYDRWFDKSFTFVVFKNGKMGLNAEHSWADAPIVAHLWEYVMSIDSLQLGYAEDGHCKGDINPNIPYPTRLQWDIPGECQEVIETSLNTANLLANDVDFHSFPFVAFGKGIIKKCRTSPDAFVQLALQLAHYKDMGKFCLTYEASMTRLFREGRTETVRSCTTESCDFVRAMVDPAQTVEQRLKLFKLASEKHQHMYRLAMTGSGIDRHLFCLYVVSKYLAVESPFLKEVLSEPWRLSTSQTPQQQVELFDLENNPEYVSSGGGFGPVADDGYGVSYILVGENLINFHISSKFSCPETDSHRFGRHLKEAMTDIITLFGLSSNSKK

[8] = molecular target: T5, Carnitine O-palmitoyltransferase 1, liver isoform (Rattus norvegicus, UniProt P32198); test: as §2
T5 sequence (P32198 whole entry): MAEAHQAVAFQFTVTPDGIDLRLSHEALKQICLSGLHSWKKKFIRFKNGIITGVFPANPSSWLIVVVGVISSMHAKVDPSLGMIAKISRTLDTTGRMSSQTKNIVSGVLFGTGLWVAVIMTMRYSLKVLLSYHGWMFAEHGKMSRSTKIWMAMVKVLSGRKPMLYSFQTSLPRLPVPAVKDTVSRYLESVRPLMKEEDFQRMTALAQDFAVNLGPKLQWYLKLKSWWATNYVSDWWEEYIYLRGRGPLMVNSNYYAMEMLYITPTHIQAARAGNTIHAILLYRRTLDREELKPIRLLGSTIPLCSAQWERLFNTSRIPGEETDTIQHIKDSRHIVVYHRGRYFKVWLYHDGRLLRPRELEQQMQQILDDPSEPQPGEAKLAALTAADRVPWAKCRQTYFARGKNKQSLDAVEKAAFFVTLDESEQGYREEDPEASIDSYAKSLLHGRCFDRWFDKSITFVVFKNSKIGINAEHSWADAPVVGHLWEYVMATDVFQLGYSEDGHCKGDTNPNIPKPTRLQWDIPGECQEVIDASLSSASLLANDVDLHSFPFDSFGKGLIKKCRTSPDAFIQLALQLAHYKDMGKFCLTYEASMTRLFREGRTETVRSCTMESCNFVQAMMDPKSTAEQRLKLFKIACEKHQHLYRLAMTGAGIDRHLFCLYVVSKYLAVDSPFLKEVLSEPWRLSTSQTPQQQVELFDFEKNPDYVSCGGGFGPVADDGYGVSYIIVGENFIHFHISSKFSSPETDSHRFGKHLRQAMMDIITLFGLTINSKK

Compound | IC50 [1] [µM] | IC50 [2] [µM] | Papp [3] [×10⁻⁶ cm/s] | solubility kinetic [4] [µg/mL] | IC50 [5] [µM] | logD [6] | IC50 [7] [nM] | IC50 [8] [nM]
CCOc1ccc(C(=O)Nc2ccc(C(=O)O)c(F)c2)cc1N(CCS(=O)O)S(=O)(=O)c1cc(Cl)ccc1OC | > 100 | > 100 | 0.07 | > 685 | 27.7 | -1.31 | 146 | 140
CCn1c(C)nc(Cl)c1-c1noc([C@H]2CCCCN2C(=O)COc2ccccc2)n1 | 37.3 | > 100 | 3.98 | 24 (≈ 55.8 µM) | > 100 | 3.17 | 73.8 | 164
COc1ccc(Cl)cc1S(=O)(=O)c1cn(CCO)c2ccc(C(=O)Nc3ccccc3)cc12 | > 100 | > 100 | 0.06 | < 1 | > 100 | 3.4 | 43.8 | 20.5
NS(=O)(=O)c1ccc(C#C[C@H]2CCCCN2C(=O)COc2ccccc2)cc1 | > 100 | > 100 | 4.11 | 8 (≈ 20.1 µM) | > 100 | 3.01 | 86.6 | 83.8
O=C1NCc2ccc(-c3n[nH]c([C@H]4CCCCN4C(=O)COc4ccccc4)n3)cc2N1 | 40.2 | 44.1 | 2.18 | 77 (≈ 178 µM) | > 100 | 2.18 | 192 | 546
COc1ccc(Cl)cc1S(=O)(=O)N1CCOc2ccc(C(=O)Nc3ccc(-c4noc(=O)[nH]4)cc3)cc21 | > 100 | > 100 | 0.93 | 1 (≈ 1.84 µM) | 0.134 | 2.22 | 61 | 152
O=C(c1nc([C@H]2CCCCN2C(=O)COc2ccccc2)no1)N1CCC(c2ccncc2)C1 (stereo not given in full) | 19.1 | 57.3 | 4.27 | 204 (≈ 442 µM) | > 100 | 2.12 | 216 | 1670
O=C(COc1ccccc1)N1CCCC[C@@H]1c1noc(-c2ccc3cnccc3n2)n1 | 17.4 | > 100 | 4.52 | 82 (≈ 197 µM) | > 100 | 2.52 | 188 | 305
CCCN(c1cc(C(=O)Nc2ccc(CC(=O)O)cc2)cc2c1OCO2)S(=O)(=O)c1cc(Cl)ccc1OC | > 100 | > 100 | 3.45 | 517 (≈ 922 µM) | 0.955 | 0.87 | 191 | 184
COc1ccc(Cl)cc1S(=O)(=O)N1CCc2ccc(C#Cc3ccc(C(=O)O)cc3)cc21 | > 100 | > 100 | 0.26 | < 1 | 82.2 | 3.3 | 111 | 112
